Test results taken from patent US7510851B2, “Compositions and methods for diagnosing and treating diabetes, insulin resistance and dyslipidemia” (Metabolex, Inc., priority 2001, dated 2009).

What was measured:
[1] = test system: 3T3-L1 adipocytes; assay: insulin-stimulated glucose transport (3H-2-deoxyglucose) in adenovirus-infected 3T3-L1 adipocytes; format: cell-based, mouse; conditions: cells infected with control virus, 4 μM PGD2 for 20 hours
Protocol: 3T3-L1 adipocytes were infected with either control adenovirus or recombinant adenovirus encoding the four human AKR1C isoforms and incubated 20 hours to allow for protein expression. Cells were then treated 20 hours with 4 μM PGD2 and glucose transport in the absence and presence of insulin was measured.

[2] = test system: aP2 reporter gene (endogenous PPAR); assay: cell-based natural PPAR-responsive promoter (aP2) reporter gene assay; set-up: species or system mouse
Protocol: Prostaglandin D2 and 9α,11β-PGF2α were assayed in cell-based assays (ex vivo) designed to detect activation of a natural PPAR responsive promoter. The assay uses the promoter region of the mouse aP2 gene, which contains binding sites for PPARs (both PPAR alpha and gamma) coupled to a reporter gene. Binding of a ligand to endogenous PPAR results in activation of the aP2 reporter gene.

[3] = target: T1, PPAR alpha (Homo sapiens, UniProt Q07869); assay: cell-based PPAR ligand activity reporter assay (PPAR ligand-binding domain coupled to heterologous DNA binding domain); conditions: reporter gene expression
T1 construct: expressed in transfected cells
T1 sequence (Q07869 239-466 limits assumed): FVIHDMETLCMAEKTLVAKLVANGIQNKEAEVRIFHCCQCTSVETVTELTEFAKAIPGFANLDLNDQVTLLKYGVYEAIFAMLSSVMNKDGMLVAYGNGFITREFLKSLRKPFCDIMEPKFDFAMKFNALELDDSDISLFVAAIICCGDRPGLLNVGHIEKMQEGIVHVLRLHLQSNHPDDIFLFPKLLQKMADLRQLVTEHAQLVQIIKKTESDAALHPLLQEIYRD
Protocol: (§1) Prostaglandin D2 and 9α,11β-PGF2α were assayed in cell-based assays (ex vivo) designed to detect PPAR ligand activity. The assay uses a recombinant protein consisting of a PPAR ligand-binding domain coupled to a heterologous DNA binding domain. See, e.g., Reginato, et. al., J. Biol. Chem. 273:32679 (1998). Binding of a ligand to the PPAR binding domain drives expression of a reporter gene.

[4] = target: T2, PPAR gamma (Homo sapiens, UniProt P37231); assay: as above; conditions: reporter gene expression
T2 construct: expressed in transfected cells
T2 sequence (P37231 238-503 limits assumed): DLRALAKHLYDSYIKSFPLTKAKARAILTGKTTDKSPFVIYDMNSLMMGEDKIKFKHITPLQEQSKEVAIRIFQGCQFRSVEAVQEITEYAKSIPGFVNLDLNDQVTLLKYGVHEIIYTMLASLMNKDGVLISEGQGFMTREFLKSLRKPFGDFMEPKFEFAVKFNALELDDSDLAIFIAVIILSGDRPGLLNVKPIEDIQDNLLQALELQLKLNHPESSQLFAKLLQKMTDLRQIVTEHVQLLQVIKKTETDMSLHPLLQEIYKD
Protocol: as §1

[5] = test system: RGS2; assay: Taqman PCR expression in treated 3T3-L1 adipocytes; format: cell-based, mouse; conditions: for RGS2 fold change: Taqman, 3T3-L1 adipocytes treated with rosiglitazone, PGD2 or 9α,11β-PGF2α; for down regulation of RGS2, fold: Taqman PCR with SYBR green detection, verification of chip data
Text: (§2) Primers were designed against murine RGS2 and murine PDHK4 and the gene expression changes observed with the standard mouse chips were verified using Taqman PCR with SYBR green detection. Treatment of cells with pioglitazone, rosiglitazone or troglitazone caused a down regulation of RGS2 by 0.47 fold, 0.41 fold and 0.55 fold, respectively.
(§3) Taqman primers were used to analyze the expression of RGS2 and PDHK4 in mouse 3T3-L1 adipocytes treated with rosiglitazone, PGD2 and 9α,11β-PGF2α. […] In contrast, the fold change with 9α,11β-PGF2α was 0.75. […] In contrast, the fold change with 9α,11β-PGF2α was 0.77.

[6] = test system: PDHK4; assay: Taqman PCR expression in treated 3T3-L1 adipocytes; format: cell-based, mouse; conditions: for PDHK4 fold change: Taqman, 3T3-L1 adipocytes treated with rosiglitazone, PGD2 or 9α,11β-PGF2α; for up regulation of PDHK4, fold: Taqman PCR with SYBR green detection, verification of chip data
Text: as §2, §3

[7] = test system: mouse 3T3-L1 adipocytes; assay: glucose transport in 3T3-L1 adipocytes; format: cell-based; conditions: treatment for 40 hours
[8] = test system: pyruvate dehydrogenase kinase 4 mRNA (PDHK4); assay: standard mouse micro-array expression in treated 3T3-L1 adipocytes; format: cell-based
Text: (§4) For RGS2 we observed down-regulation as follows; pioglitazone 0.29 fold p<0.00009, rosiglitazone 0.25 fold p<0.00003, troglitazone, 0.27 fold p<0.00085. […] As such these regulations are reflective of endogenous PPAR activation of endogenous genes.

[9] = test system: RGS2 mRNA; assay: as above; format: cell-based
Text: as §4

Row | SMILES | effect on insulin-stimulated glucose transport [1] | activation of the aP2 reporter gene [2] | activation of PPAR alpha [3] | activation of PPAR gamma [4] | RGS2 fold change [5] [fold change] | PDHK4 fold change [6] [fold change] | effect on glucose transport [7] | PDHK4 mRNA up regulation, fold [8] [fold] | RGS2 mRNA down-regulation, fold [9] [fold] | down regulation of RGS2, fold [5] [fold] | up regulation of PDHK4, fold [6] [fold]
1 | CCCCC[C@H](O)/C=C/[C@H]1C(=O)C[C@H](O)[C@@H]1C/C=C\CCCC(=O)O [PGD2, prostaglandin D2] | enhances insulin-stimulated glucose transport | Significant activation | Significant activation | Significant activation | 0.29 | 2.39 | enhances glucose transport to similar levels as those observed with the PPAR ligand rosiglitazone |  |  |  | 
2 | Cc1c(C)c2c(c(C)c1O)CCC(C)(COc1ccc(CC3SC(=O)NC3=O)cc1)O2 (stereo not drawn) [troglitazone] |  |  |  |  |  |  |  | 3.2 | 0.27 | 0.55 | 5.5
3 | CCc1ccc(CCOc2ccc(CC3SC(=O)NC3=O)cc2)nc1 (stereo not drawn) [pioglitazone] |  |  |  |  |  |  |  | 3.13 | 0.29 | 0.47 | 4.9
4 | CCCCC[C@H](O)/C=C/[C@@H]1[C@@H](C/C=C\CCCC(=O)O)[C@@H](O)C[C@@H]1O [9α,11β-PGF2α, 9α,11β-prostaglandin F2α] |  | without effect | without effect | without effect | 0.75 | 0.77 | no effect on glucose transport |  |  |  | 
5 | CN(CCOc1ccc(CC2SC(=O)NC2=O)cc1)c1ccccn1 (stereo not drawn) [rosiglitazone] |  |  |  |  | 0.20 | 3.73 |  | 3.16 | 0.25 | 0.41 | 5.45
